Data from patent publication US11472806B2, “Substituted heterocyclic compounds as allosteric modulators of group II metabotropic glutamate receptors” (Domain Therapeutics, priority 2017, dated 2022).
pEC50: −log10 of the molar value. Where a name gives a salt, the structure may show the parent alone.

Each compound was assayed against T1, human mGluR3 (hmGluR3) (Homo sapiens, UniProt Q14832) (assay: Human mGluR3 positive allosteric modulator evaluation using Ca++ functional assay). Settings: hmGluR3 transiently over-expressed in HEK-293 cells; cells stimulated by an EC50 glutamate concentration; intracellular Ca2+ (Fluo4AM, FLIPR Tetra).
T1 construct: expressed in transfected cells; host or cells: HEK-293 cells, transient co-transfection by electroporation
Type: cell-based
Method: Example 89: Human mGluR3 Positive Allosteric Modulator Evaluation Using Ca++ Functional Assay
Compounds of the present invention were tested successively for their agonist and positive allosteric modulator activities on human mGluR3 (hmGluR3) transiently over-expressed in HEK-293 cells. Compounds exert agonist activity if they are able to activate hmGluR3 by themselves, i.e., in absence of the endogenous agonist glutamate; and they exert positive allosteric modulator activity if they increase the action of the endogenous agonist glutamate.
Cell Culture and Transfection:
HEK-293 cells were maintained in Modified Eagle's Medium supplemented with 10% Foetal Calf Serum, 1% Penicillin/Streptomycin and 1% non-essential amino acids at 37° C./5% CO2. Cells were co-transfected by electroporation with four DNA plasmids encoding hmGluR3, a chimeric G protein allowing redirection of the activation signal toward intracellular calcium pathway, and two glutamate transporters so as to decrease extracellular glutamate levels and avoid receptor desensitization (Brabet I et al., Neuropharmacology 37(8), 1043-51, 1998). After transfection, cells were seeded in 75 cm^2 culture flasks, and cultured for 24 h.
Calcium Assa EC50 determination:
Receptor activity was detected by changes in intracellular calcium measured using the fluorescent Ca^2+ sensitive dye, Fluo4AM (Molecular Probes).
The day of the assay, medium was aspirated and replaced during 3 hrs by freshly prepared buffer B (HBSS 1×, Hepes 20 mM, MgSO4-7H2O 1 mM, Na2CO3 3.3 mM, CaCl2-2H2O 1.3 mM, 0.5% BSA, Probenecid 2.5 mM). Then, cells were loaded at 37° C./5% CO2 for 1.5 hrs with buffer B containing 1 μM Fluo4AM, 0.1 mg/mL Pluronic Acid, 7 μg/mL Glutamate Pyruvate Transaminase and 2 mM sodium pyruvate. Afterwards cells were washed with buffer B. Cells were then detached from the 75 cm^2 culture flasks with Accutase® (5 min incubation at 37° C.), centrifuged (5 min at 840 rpm), resuspended in buffer B and finally seeded at a density of 30,000 cells/well in black-walled clear-bottom 384-well plates. Addition of compounds on cells and intracellular Ca^2+ measurements (excitation 485 nm, emission 525 nm) were performed by the fluorescence microplate reader FLIPR Tetra (Molecular Devices).
Agonist and positive allosteric modulator activities of compounds were consecutively evaluated on the same cells plate. Agonist activity was first tested during 10 min with the addition of compound alone on the cells. Then, the cells were stimulated by an EC50 glutamate concentration and fluorescence was recorded for additional 3 min. EC50 glutamate concentration is the concentration giving 50% of the maximal glutamate response. Agonist and/or positive allosteric modulator activity(ies) were evaluated in comparison to basal signal or signal evoked by EC50 glutamate concentration alone, respectively.
For potency determination, a dose-response test was performed using 20 concentrations of each compound of the invention. Dose-response curves were fitted using the sigmoïdal dose-response (variable slope) analysis in XLfit Scientific Curve Fitting for Excel (IDBS). EC50 of agonist/EC50 of positive allosteric modulator activity(ies) were calculated. Dose-response experiments were all performed in duplicate, two times independently.

T1 sequence (Q14832 23-879): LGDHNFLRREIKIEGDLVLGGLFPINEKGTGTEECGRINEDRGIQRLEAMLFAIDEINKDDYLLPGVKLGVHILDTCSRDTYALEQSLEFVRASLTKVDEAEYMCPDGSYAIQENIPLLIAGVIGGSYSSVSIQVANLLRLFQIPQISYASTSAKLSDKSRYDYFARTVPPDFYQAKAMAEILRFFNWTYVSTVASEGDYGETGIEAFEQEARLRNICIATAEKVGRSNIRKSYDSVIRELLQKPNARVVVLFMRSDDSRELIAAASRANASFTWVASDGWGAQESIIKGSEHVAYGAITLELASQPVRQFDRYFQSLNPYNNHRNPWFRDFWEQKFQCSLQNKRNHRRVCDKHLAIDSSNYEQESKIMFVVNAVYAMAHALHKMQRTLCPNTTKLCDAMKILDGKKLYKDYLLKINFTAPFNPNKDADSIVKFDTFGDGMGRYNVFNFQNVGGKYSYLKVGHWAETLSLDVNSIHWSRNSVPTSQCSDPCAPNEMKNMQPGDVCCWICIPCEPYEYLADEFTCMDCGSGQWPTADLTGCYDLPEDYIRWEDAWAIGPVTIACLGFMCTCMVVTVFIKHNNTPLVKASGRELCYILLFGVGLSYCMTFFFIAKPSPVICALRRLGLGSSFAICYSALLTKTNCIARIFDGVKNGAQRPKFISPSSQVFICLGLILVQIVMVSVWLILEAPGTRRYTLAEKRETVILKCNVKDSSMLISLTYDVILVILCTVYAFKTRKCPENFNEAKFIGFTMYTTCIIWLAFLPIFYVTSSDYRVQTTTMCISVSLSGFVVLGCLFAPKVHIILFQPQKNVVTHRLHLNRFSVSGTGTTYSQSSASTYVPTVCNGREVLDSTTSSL

| pEC50 | Compound |
| --- | --- |
| 6.00 to 7.00 | Cc1ncccc1-c1ccc2c(c1)-c1cccnc1C(=O)N(C)C2 [Example 26, 6-Methyl-10-(2-methyl-pyridin-3-yl)-6,7-dihydro-4,6-diaza-dibenzo[a, c]cyclohepten-5-one] |
| 5.00 to 6.00 | Cc1ncccc1-c1ccc2c(c1)-c1ccc(F)nc1C(=O)N(C)C2 [Example 30, 3-Fluoro-6-methyl-10-(2-methyl-pyridin-3-yl)-6,7-dihydro-4,6-diaza-dibenzo[a, c]cyclohepten-5-one] |
| 6.00 to 7.00 | COc1ccc2c(n1)C(=O)N(C)Cc1ccc(-c3cccnc3C)cc1-2 [Example 36, 3-Methoxy-6-methyl-10-(2-methyl-pyridin-3-yl)-6,7-dihydro-4,6-diaza-dibenzo[a, c]cyclohepten-5-one] |
| 6.00 to 7.00 | Cc1ccc2c(n1)C(=O)N(C)Cc1ccc(-c3cccnc3C)cc1-2 [Example 41, 3,6-Dimethyl-10-(2-methyl-pyridin-3-yl)-6,7-dihydro-4,6-diaza-dibenzo[a, c]cyclohepten-5-one] |
| 5.00 to 6.00 | Cc1cnc2c(c1)-c1cc(-c3cccnc3C)ccc1CN(C)C2=O [Example 43, 2,6-Dimethyl-10-(2-methyl-pyridin-3-yl)-6,7-dihydro-4,6-diaza-dibenzo[a, c]cyclohepten-5-one] |
| 5.00 to 6.00 | Cc1ncccc1-c1ccc2c(c1)-c1cc(F)cnc1C(=O)N(C)C2 [Example 46, 2-Fluoro-6-methyl-10-(2-methyl-pyridin-3-yl)-6,7-dihydro-4,6-diaza-dibenzo[a, c]cyclohepten-5-one] |
| 6.00 to 7.00 | Cc1ncccc1-c1ccc2c(c1)-c1ccsc1C(=O)N(C)C2 [Example 55, 5-Methyl-9-(2-methyl-pyridin-3-yl)-5,6-dihydro-3-thia-5-aza-benzo[e]azulen-4-one] |
| 5.00 to 6.00 | Cc1ncccc1-c1ccc2c(c1)-c1c[nH]nc1C(=O)N(C)C2 [Example 57, 5-Methyl-9-(2-methyl-pyridin-3-yl)-5,6-dihydro-2H-2,3,5-triaza-benzo[e]azulen-4-one] |
| 6.00 to 7.00 | Cc1ncccc1-c1ccc2c(c1)-c1cc[nH]c1C(=O)N(C)C2 [Example 59, 5-Methyl-9-(2-methyl-pyridin-3-yl)-5,6-dihydro-3H-3,5-diaza-benzo[e]azulen-4-one] |

Continued, compound first:

| Compound | pEC50 |
| --- | --- |
| Cc1ncccc1-c1cc2c(cn1)C1(CC1)N(C)C(=O)c1cccn1-2 [Example 3, 2′-(2-Methyl-pyridin-3-yl)-6′-methylspiro[cyclopropane-1,5′-pyrido[3,4-f]pyrrolo[1,2-a][1,4]diazepin]-7′(6 ^1H)-one] | 5.00 to 6.00 |
| Cc1ncccc1-c1cnc2c(c1)-n1cccc1C(=O)N(C)C2 [Example 6, 5-Methyl-9-(2-methyl-pyridin-3-yl)-5,6-dihydro-5,7,10b-triaza-benzo[e]azulen-4-one, dihydrochloride] | < 5.00 |
| Cc1ncccc1-c1cnc2c(n1)-n1cccc1C(=O)N(C)C2 [Example 7, 5-Methyl-9-(2-methyl-pyridin-3-yl)-5,6-dihydro-5,7,10,10b-tetraaza-benzo[e]azulen-4-one, dihydrochloride] | 5.00 to 6.00 |
| CN1Cc2ncc(-c3cccc(C#N)c3)cc2-n2cccc2C1=O [Example 11, 3-(5-Methyl-4-oxo-5,6-dihydro-4H-5,7,1 b-triaza-benzo[e]azulen-9-yl)-benzonitrile] | < 5.00 |
| CN1Cc2ncc(-c3ccc4nccn4c3)cc2-n2cccc2C1=O [Example 12, 9-Imidazo[1,2-a]pyridin-6-yl-5-methyl-5,6-dihydro-5,7,10b-triaza-benzo[e]azulen-4-one] | < 5.00 |
| Cc1ncccc1-c1ccc2c(c1)-n1cccc1C(=O)N(C)C21CCC1 [Example 17, 9-(2-Methyl-pyridin-3-yl)-5-methyl-5,6-dihydro-spiro[benzo[f]pyrrolo[, 2-a][1,4]diazepine-6,1′-cyclobutan]-4-one] | 6.00 to 7.00 |
| Cc1ncccc1-c1ccc2c(c1)-c1ccccc1C(=O)N(C)C21CC1 [Example 21, 10-(2-Methyl-pyridin-3-yl)-6-methyl-6,7-dihydro-spiro[dibenzo[c,e]azepine-7,1′-cyclopropan]-5-one, hydrochloride] | 6.00 to 7.00 |
| Cc1ncccc1-c1ccc2c(c1)-c1ccc(Cl)cc1C(=O)N(C)C21CC1 [Example 22, 3-Chloro-10-(2-methyl-pyridin-3-yl)-6-methyl-6,7-dihydro-spiro[dibenzo[c, e]azepine-7,1′-cyclopropan]-5-one] | 5.00 to 6.00 |
| Cc1ncccc1-c1ccc2c(c1)-c1ccc(-c3ccnn3C)cc1C(=O)N(C)C21CC1 [Example 23, 3-(2-Methyl-2H-pyrazol-3-yl)-10-(2-methyl-pyridin-3-yl)-6-methyl-6,7-dihydro-spiro[dibenzo[c, e]azepine-7,1′-cyclopropan]-5-one] | 6.00 to 7.00 |
| CN1Cc2ccc(-c3cccc(C#N)c3)cc2-c2cccnc2C1=O [Example 25, 3-(6-Methyl-5-oxo-6,7-dihydro-5H-4,6-diaza-dibenzo[a,c]cyclohepten-10-yl)-benzonitrile] | 6.00 to 7.00 |
| CN1Cc2ccc(-c3ccc(F)nc3)cc2-c2cccnc2C1=O [Example 27, 10-(6-Fluoro-pyridin-3-yl)-6-methyl-6,7-dihydro-4,6-diaza-dibenzo[a, c]cyclohepten-5-one] | 6.00 to 7.00 |
| CN1Cc2ccc(-c3ccc(F)cn3)cc2-c2cccnc2C1=O [Example 28, 10-(5-Fluoro-pyridin-2-yl)-6-methyl-6,7-dihydro-4,6-diaza-dibenzo[a, c]cyclohepten-5-one] | 6.00 to 7.00 |
| CN1Cc2ccc(-c3ccc(F)nc3)cc2-c2ccc(F)nc2C1=O [Example 31, 3-Fluoro-10-(6-fluoro-pyridin-3-yl)-6-methyl-6,7-dihydro-4,6-diaza-dibenzo[a, c]cyclohepten-5-one] | 5.00 to 6.00 |
| CN1Cc2ccc(-c3ccc(F)cn3)cc2-c2ccc(F)nc2C1=O [Example 32, 3-Fluoro-10-(5-fluoro-pyridin-2-yl)-6-methyl-6,7-dihydro-4,6-diaza-dibenzo[a, c]cyclohepten-5-one] | 5.00 to 6.00 |
| COc1ccc2c(n1)C(=O)N(C)Cc1ccc(-c3ccc(F)cn3)cc1-2 [Example 34, 10-(5-Fluoro-pyridin-2-yl)-3-methoxy-6-methyl-6,7-dihydro-4,6-diaza-dibenzo[a, c]cyclohepten-5-one] | 6.00 to 7.00 |
| Cc1ccc2c(n1)C(=O)N(C)Cc1ccc(-c3ccc(F)nc3)cc1-2 [Example 39, 10-(6-Fluoro-pyridin-3-yl)-3,6-dimethyl-6,7-dihydro-4,6-diaza-dibenzo[a, c]cyclohepten-5-one] | 6.00 to 7.00 |
| Cc1ccc2c(n1)C(=O)N(C)Cc1ccc(-c3ccc(F)cn3)cc1-2 [Example 40, 10-(5-Fluoro-pyridin-2-yl)-3,6-dimethyl-6,7-dihydro-4,6-diaza-dibenzo[a, c]cyclohepten-5-one] | 6.00 to 7.00 |
| Cc1cnc2c(c1)-c1cc(-c3ccc(F)nc3)ccc1CN(C)C2=O [Example 44, 10-(6-Fluoro-pyridin-3-yl)-2,6-dimethyl-6,7-dihydro-4,6-diaza-dibenzo[a, c]cyclohepten-5-one] | 6.00 to 7.00 |
| CN1Cc2ccc(-c3ccc(F)nc3)cc2-c2cc(F)cnc2C1=O [Example 47, 2-Fluoro-10-(6-fluoro-pyridin-3-yl)-6-methyl-6,7-dihydro-4,6-diaza-dibenzo[a, c]cyclohepten-5-one] | 6.00 to 7.00 |
| COc1cnc2c(c1)-c1cc(-c3cccnc3C)ccc1CN(C)C2=O [Example 48, 2-Methoxy-6-methyl-10-(2-methyl-pyridin-3-yl)-6,7-dihydro-4,6-diaza-dibenzo[a, c]cyclohepten-5-one] | 6.00 to 7.00 |
| COc1ccc2c(n1)C(=O)N(C)C1(CC1)c1ccc(Cl)cc1-2 [Example 52, 10-chloro-3-methoxy-6-methylspiro[benzo[c]pyrido[3,2-e]azepine-7,1′-cyclopropan]-5(6H)-one] | 6.00 to 7.00 |
| COCn1cc2c(n1)C(=O)N(C)Cc1ccc(-c3cccnc3C)cc1-2 [Example 65, 2-Methoxymethyl-5-methyl-9-(2-methyl-pyridin-3-yl)-5,6-dihydro-2H-2,3,5-triaza-benzo[e]azulen-4-one] | 6.00 to 7.00 |
